Laboratory results published in US10722514B2 (FLX Bio, Inc., priority 2017, dated 2020).

These compounds were tested against T1, recombinant full-length USP7 (Homo sapiens, UniProt Q93009) (assay: USP7-mediated ubiquitin-rhodamine cleavage assay). Details: recombinant full-length USP7 62 pM; ubiquitin-rhodamine 100 nM; 30-minute incubation with compound, 1 hour reaction at room temperature; read-out: Potency: USP7 IC50.
T1 construct: A 25 μl reaction volume containing recombinant full-length USP7 (62 pM)
Format: biochemical
In short: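 Compounds are first incubated with 62 pM enzyme for 30 min at room temperature in pH 7.3 HEPES buffer containing TCEP and BSA. Cleavage of 100 nM ubiquitin-rhodamine proceeds for 1 h before an acid quench, and IC50 is derived from fluorescence.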

T1 sequence (Q93009 whole entry): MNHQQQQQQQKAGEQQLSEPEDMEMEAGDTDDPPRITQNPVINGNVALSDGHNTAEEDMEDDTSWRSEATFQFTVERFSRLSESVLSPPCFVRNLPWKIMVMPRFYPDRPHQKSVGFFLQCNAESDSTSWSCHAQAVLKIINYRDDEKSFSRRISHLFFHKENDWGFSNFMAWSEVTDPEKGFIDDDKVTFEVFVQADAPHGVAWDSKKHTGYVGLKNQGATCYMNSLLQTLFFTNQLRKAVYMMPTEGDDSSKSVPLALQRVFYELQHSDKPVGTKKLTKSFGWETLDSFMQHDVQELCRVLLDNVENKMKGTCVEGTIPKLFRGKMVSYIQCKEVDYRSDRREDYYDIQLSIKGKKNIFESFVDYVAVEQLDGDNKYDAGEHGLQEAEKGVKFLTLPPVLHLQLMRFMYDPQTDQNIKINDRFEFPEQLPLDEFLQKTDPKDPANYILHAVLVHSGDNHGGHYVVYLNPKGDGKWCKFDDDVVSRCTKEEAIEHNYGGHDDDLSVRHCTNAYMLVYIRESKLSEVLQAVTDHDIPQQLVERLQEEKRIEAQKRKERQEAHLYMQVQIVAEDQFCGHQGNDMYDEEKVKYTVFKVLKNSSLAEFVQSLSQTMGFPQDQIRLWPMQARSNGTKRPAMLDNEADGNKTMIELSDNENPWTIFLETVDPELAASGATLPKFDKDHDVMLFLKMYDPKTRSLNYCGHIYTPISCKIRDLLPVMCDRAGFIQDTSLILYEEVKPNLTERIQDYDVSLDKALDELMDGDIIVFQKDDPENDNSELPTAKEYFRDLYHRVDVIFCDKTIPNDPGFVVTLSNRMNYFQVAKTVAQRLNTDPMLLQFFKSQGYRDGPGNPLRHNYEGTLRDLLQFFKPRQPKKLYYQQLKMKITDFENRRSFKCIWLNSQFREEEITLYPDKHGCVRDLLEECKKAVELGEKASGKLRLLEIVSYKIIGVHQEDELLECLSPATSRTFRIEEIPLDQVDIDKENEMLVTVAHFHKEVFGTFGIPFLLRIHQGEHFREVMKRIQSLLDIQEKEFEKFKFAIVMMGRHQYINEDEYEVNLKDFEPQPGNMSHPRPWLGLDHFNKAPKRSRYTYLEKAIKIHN

IC50 | SMILES
1000 to 10000 nM | Cc1cc(Cl)cc(-c2ccnc3cc(CO)sc23)c1O[C@@H]1CNC[C@@H]1C [Example 56, (7-(5-Chloro-3-methyl-2-(((3S,4S)-4-methylpyrrolidin-3-yl)oxy)phenyl)thieno[3,2-b]pyridin-2-yl)methanol]
< 1000 nM | Cc1cc(Cl)cc(-c2ccnc3cc(CN4C(=O)C5CC5C4=O)sc23)c1OC1CCNC1C (stereo not drawn) [Example 301, 3-[[7-[5-chloro-3-methyl-2-(2-methylpyrrolidin-3-yl)oxy-phenyl]thieno[3,2-b]pyridin-2-yl]methyl]-3-azabicyclo[3.1.0]hexane-2,4-dione; 2,2,2-trifluoroacetic acid]

Second part, the compound before the results:

SMILES | IC50
Cc1cc(Cl)cc(-c2ccnc3cc(CNS(C)(=O)=O)sc23)c1O[C@@H]1CNC[C@@H]1F [Example 107, N-((7-(5-Chloro-2-(((3R,4S)-4-fluoropyrrolidin-3-yl)oxy)-3-methylphenyl)thieno[3,2-b]pyridin-2-yl)methyl)methanesulfonamide] | 1000 to 10000 nM
O=C1CCC(=O)N1Cc1cc2nccc(-c3cc(Cl)cc(Br)c3O[C@@H]3CNC[C@@H]3F)c2s1 [Example 102, 1-((7-(3-Bromo-5-chloro-2-(((3R,4S)-4-fluoropyrrolidin-3-yl)oxy)phenyl)thieno[3,2-b]pyridin-2-yl)methyl)pyrrolidine-2,5-dione] | < 1000 nM
Cc1cc(Cl)cc(-c2ccnc3cc(CN4C(=O)C5C(C4=O)C5(C)C)sc23)c1OC1CN2CCC1CC2 (stereo not drawn) [Example 316, 3-[[7-(5-chloro-3-methyl-2-quinuclidin-3-yloxy-phenyl)thieno[3,2-b]pyridin-2-yl]methyl]-6,6-dimethyl-3-azabicyclo[3.1.0]hexane-2,4-dione; 2,2,2-trifluoroacetic acid] | < 1000 nM
Cc1cc(Cl)cc(-c2ccnc3cc(CO)sc23)c1O[C@@H]1CC[C@@H](N)C1 [Example 90, (7-(2-(((1R,3R)-3-Aminocyclopentyl)oxy)-5-chloro-3-methylphenyl)thieno[3,2-b]pyridin-2-yl)methanol] | 1000 to 10000 nM
Cc1cc(Cl)cc(-c2ccnc3cc(CN4C(=O)CCC4=O)sc23)c1OC1CCNCC1 [Example 210, 1-((7-(5-Chloro-3-methyl-2-(piperidin-4-yloxy)phenyl)thieno[3,2-b]pyridin-2-yl)methyl)pyrrolidine-2,5-dione] | < 1000 nM
Cc1cc(C#N)cc(-c2ccnc3cc(CN4C(=O)CCC4=O)sc23)c1OCC1(C)CNC1 [Example 46, 3-(2-((2,5-Dioxopyrrolidin-1-yl)methyl)thieno[3,2-b]pyridin-7-yl)-5-methyl-4-((3-methylazetidin-3-yl)methoxy)benzonitrile] | < 1000 nM

Same assay, conditions: recombinant full-length USP7 62 pM; ubiquitin-rhodamine 100 nM; 30-minute incubation, 1 hour reaction at room temperature; read-out: Potency (USP7 IC50)

IC50 | SMILES
< 1000 nM | Cc1cc(Cl)cc(-c2ccnc3cc(Cn4c(=O)ccn(CC(F)(F)F)c4=O)sc23)c1OCCN1CCC1 [Example 701, 3-[[7-[2-[2-(azetidin-1-yl)ethoxy]-5-chloro-3-methyl-phenyl]thieno[3,2-b]pyridin-2-yl]methyl]-1-(2,2,2-trifluoroethyl)pyrimidine-2,4-dione; 2,2,2-trifluoroacetic acid]

Same assay, conditions: recombinant full-length USP7 62 pM; ubiquitin-rhodamine 100 nM; 30-minute pre-incubation, 1 hour reaction at room temperature; read-out: Potency (USP7 IC50)

IC50 | SMILES
< 1000 nM | Cc1cc(Cl)cc(-c2ccnc3cc(Cn4c(=O)ccn(C)c4=O)sc23)c1O[C@H]1CNC[C@H](C)C1 [Example 537, 3-[[7-[5-chloro-3-methyl-2-[[(3R,5R)-5-methyl-3-piperidyl]oxy]phenyl]thieno[3,2-b]pyridin-2-yl]methyl]-1-methyl-pyrimidine-2,4-dione]
< 1000 nM | Cc1cc(Cl)cc(-c2ccnc3cc(CN4C(=O)CCC4=O)sc23)c1O[C@@H]1CNC[C@H](F)C1 [Example 424, 1-[[7-[5-chloro-2-[[(3S,5R)-5-fluoro-3-piperidyl]oxy]-3-methyl-phenyl]thieno[3,2-b]pyridin-2-yl]methyl]pyrrolidine-2,5-dione]
< 1000 nM | Cc1cc(Cl)cc(-c2ccnc3cc(Cn4c(=O)ccn(C(C)C)c4=O)sc23)c1O[C@H]1CCC2NCCO[C@H]21 (stereo partly drawn) [Example 511, 4-[[7-[2-[[(7S,7aR)-2,3,4,4a,5,6,7,7a-octahydrocyclopenta[b][1,4]oxazin-7-yl]oxy]-5-chloro-3-methyl-phenyl]thieno[3,2-b]pyridin-2-yl]methyl]-1-isopropyl-pyrimidine-2,4-dione]
